# Measurements: patent publication US9067977B2, “Peptides derivatized with A-B-C-D- and their therapeutical use” (Novo Nordisk A/S, priority 2007, dated 2015)
# pEC50: −log10 of the molar value. Starred links: 1 amine or outer side, 2 acyl side, 3 side chain; linkers in the order of their positions; H or OH if unused. Non-standard residues stand in square brackets, D forms with d. Residues, ends and D or L forms follow the SMILES beside them. Groups on a side chain read outwards from the residue. *: point of attachment. X3 = O=C(O)CCCCCCCCCCCCCCCCCCC(=O)NC[C@H]1CC[C@H](C(=O)N[C@@H](CCC(=O)NCCOCCOCC(=O)NCCOCCOCC(=O)N[C@@H](CCCCN*)C(=O)O)C(=O)O)CC1; X1 = O=C(CCCCCCCCCCCCCCCc1nnn[nH]1)NS(=O)(=O)CCCC(=O)*; γGlu = O=C(O)[C@H](CCC(=O)[*:2])N[*:1]; Desaminohistidyl = O=C(CCc1c[nH]cn1)*; 12Ado = NCCCCCCCCCCCC(=O)O; AEEA = NCCOCCOCC(=O)O; Aib = CC(C)(N)C(=O)O
# Biological target: human serum albumin (HSA) (Homo sapiens, UniProt P02768)
# Sequence (P02768 25-609): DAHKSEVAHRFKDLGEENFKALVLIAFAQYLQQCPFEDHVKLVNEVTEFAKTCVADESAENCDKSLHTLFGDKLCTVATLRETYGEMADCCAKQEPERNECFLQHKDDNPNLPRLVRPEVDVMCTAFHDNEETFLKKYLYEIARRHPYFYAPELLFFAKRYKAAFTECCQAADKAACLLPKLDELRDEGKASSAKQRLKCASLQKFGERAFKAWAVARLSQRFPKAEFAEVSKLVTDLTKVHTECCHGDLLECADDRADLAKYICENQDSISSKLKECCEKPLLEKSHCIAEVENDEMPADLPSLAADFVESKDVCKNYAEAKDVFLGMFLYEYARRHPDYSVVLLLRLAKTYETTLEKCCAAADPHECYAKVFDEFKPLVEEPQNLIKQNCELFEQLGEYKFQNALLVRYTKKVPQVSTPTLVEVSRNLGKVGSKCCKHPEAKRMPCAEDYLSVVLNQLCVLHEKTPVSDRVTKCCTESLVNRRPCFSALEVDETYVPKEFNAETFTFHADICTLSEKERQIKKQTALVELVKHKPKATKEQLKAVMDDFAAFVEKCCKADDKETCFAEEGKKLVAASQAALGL
# Experiment: Albumin binding affinity, competition scintillation proximity assay
# Conditions: not given
row,pEC50,SMILES
1,7.00 to 9.00,"CC[C@H](C)[C@H](NC(=O)[C@H](Cc1ccccc1)NC(=O)[C@H](CCC(=O)O)NC(=O)[C@H](CCCNC(=N)N)NC(=O)[C@H](C)NC(=O)[C@H](C)NC(=O)[C@H](CCC(N)=O)NC(=O)[C@H](CCC(=O)O)NC(=O)[C@H](CCC(=O)O)NC(=O)[C@H](CC(C)C)NC(=O)[C@H](Cc1ccc(O)cc1)NC(=O)[C@H](CO)NC(=O)[C@H](CO)NC(=O)[C@@H](NC(=O)[C@H](CC(=O)O)NC(=O)[C@H](CO)NC(=O)[C@@H](NC(=O)[C@H](Cc1ccccc1)NC(=O)[C@@H](NC(=O)CNC(=O)[C@H](CCC(=O)O)NC(=O)C(C)(C)NC(=O)[C@@H](N)Cc1c[nH]cn1)[C@@H](C)O)[C@@H](C)O)C(C)C)C(=O)N[C@@H](C)C(=O)N[C@@H](Cc1c[nH]c2ccccc12)C(=O)N[C@@H](CC(C)C)C(=O)N[C@H](C(=O)N[C@@H](CCCNC(=N)N)C(=O)NCC(=O)N[C@@H](CCCNC(=N)N)C(=O)NCC(=O)N[C@@H](CCCCNC(=O)COCCOCCNC(=O)CC[C@H](NC(=O)CC[C@H](NC(=O)CCCCCCCCCCCNC(=O)CCCS(=O)(=O)NC(=O)CCCCCCCCCCCCCCCc1nnn[nH]1)C(=O)O)C(=O)O)C(N)=O)C(C)C [Example 46, [Aib8,Glu22,Arg26,Arg34]GLP-1-(7-37)Lys[2-(2-{2-[(S)-4-Carboxy-4-((S)-4-carboxy-4-{12-[4-(16-(1H-tetrazol-5-yl)hexadecanoylsulfamoyl)butyrylamino]dodecanoylamino}-butyrylamino)butyrylamino]ethoxy}ethoxy)acetyl]amide] (H-H[Aib]EGTFTSDVSSYLEEQAAREFIAWLVRGRGK([AEEA-γGlu-γGlu-12Ado-X1])-NH2)"
2,7.00 to 9.00,"CC[C@H](C)[C@H](NC(=O)[C@H](Cc1ccccc1)NC(=O)[C@H](CCC(=O)O)NC(=O)[C@H](CCCNC(=N)N)NC(=O)[C@H](C)NC(=O)[C@H](C)NC(=O)[C@H](CCC(N)=O)NC(=O)[C@H](CCC(=O)O)NC(=O)[C@H](CCC(=O)O)NC(=O)[C@H](CC(C)C)NC(=O)[C@H](Cc1ccc(O)cc1)NC(=O)[C@H](CO)NC(=O)[C@H](CO)NC(=O)[C@@H](NC(=O)[C@H](CC(=O)O)NC(=O)[C@H](CO)NC(=O)[C@@H](NC(=O)[C@H](Cc1ccccc1)NC(=O)[C@@H](NC(=O)CNC(=O)[C@H](CCC(=O)O)NC(=O)[C@H](C)NC(=O)CCc1c[nH]cn1)[C@@H](C)O)[C@@H](C)O)C(C)C)C(=O)N[C@@H](C)C(=O)N[C@@H](Cc1c[nH]c2ccccc12)C(=O)N[C@@H](CC(C)C)C(=O)N[C@H](C(=O)N[C@@H](CCCNC(=N)N)C(=O)NCC(=O)N[C@@H](CCCNC(=N)N)C(=O)NCCCC[C@H](NC(=O)COCCOCCNC(=O)COCCOCCNC(=O)CC[C@H](NC(=O)[C@H]1CC[C@H](CNC(=O)CCCCCCCCCCCCCCCCCCC(=O)O)CC1)C(=O)O)C(=O)O)C(C)C [Example 53, N-alpha37-[2-(2-{2-[2-(2-{2-[(S)-4-Carboxy-4-({trans-4-[(19-carboxynonadecanoylamino)methyl]cyclohexanecarbonyl}amino)butyrylamino]ethoxy}ethoxy)acetylamino]ethoxy}ethoxy)acetyl][DesaminoHis7,Glu22,Arg26,Arg34,epsilon-Lys37]GLP-1-(7-37)] (Desaminohistidyl-AEGTFTSDVSSYLEEQAAREFIAWLVRGR-X3)"

# Continued, compound first:
row,SMILES,pEC50
1,"CC[C@H](C)[C@H](NC(=O)[C@H](Cc1ccccc1)NC(=O)[C@H](CCC(=O)O)NC(=O)[C@H](CCCNC(=N)N)NC(=O)[C@H](C)NC(=O)[C@H](C)NC(=O)[C@H](CCC(N)=O)NC(=O)[C@H](CCC(=O)O)NC(=O)[C@H](CCC(=O)O)NC(=O)[C@H](CC(C)C)NC(=O)[C@H](Cc1ccc(O)cc1)NC(=O)[C@H](CO)NC(=O)[C@H](CO)NC(=O)[C@@H](NC(=O)[C@H](CC(=O)O)NC(=O)[C@H](CO)NC(=O)[C@@H](NC(=O)[C@H](Cc1ccccc1)NC(=O)[C@@H](NC(=O)CNC(=O)[C@H](CCC(=O)O)NC(=O)C(C)(C)NC(=O)[C@@H](N)Cc1c[nH]cn1)[C@@H](C)O)[C@@H](C)O)C(C)C)C(=O)N[C@@H](CCCCNC(=O)COCCOCCNC(=O)COCCOCCNC(=O)C[C@H](NC(=O)C1CCN(C(=O)CCCCCCCCCCCCCCCCCCC(=O)O)CC1)C(=O)O)C(=O)N[C@@H](Cc1c[nH]c2ccccc12)C(=O)N[C@@H](CC(C)C)C(=O)N[C@H](C(=O)N[C@@H](CCCCN)C(=O)NCC(=O)N[C@@H](CCCNC(=N)N)C(=O)NCC(=O)O)C(C)C [Example 9, N-epsilon30{2-[2-(2-{2-[2-((S)-3-carboxy-3-{[1-(19-carboxynonadecanoyl)piperidine-4-carbonyl]amino}propionylamino)ethoxy]ethoxy}acetylamino)ethoxy]ethoxy}acetyl [Aib8,Glu22,Arg26,Lys30]GLP-1-(7-37)]",6.52 to 6.82
2,"CC[C@H](C)[C@H](NC(=O)[C@H](Cc1ccccc1)NC(=O)[C@H](CCC(=O)O)NC(=O)[C@H](CCCNC(=N)N)NC(=O)[C@H](C)NC(=O)[C@H](C)NC(=O)[C@H](CCC(N)=O)NC(=O)CNC(=O)[C@H](CCC(=O)O)NC(=O)[C@H](CC(C)C)NC(=O)[C@H](Cc1ccc(O)cc1)NC(=O)[C@H](CO)NC(=O)[C@H](CO)NC(=O)[C@@H](NC(=O)[C@H](CC(=O)O)NC(=O)[C@H](CO)NC(=O)[C@@H](NC(=O)[C@H](Cc1ccccc1)NC(=O)[C@@H](NC(=O)CNC(=O)[C@H](CCC(=O)O)NC(=O)[C@H](C)NC(=O)CCc1c[nH]cn1)[C@@H](C)O)[C@@H](C)O)C(C)C)C(=O)N[C@@H](C)C(=O)N[C@@H](Cc1c[nH]c2ccccc12)C(=O)N[C@@H](CC(C)C)C(=O)N[C@H](C(=O)N[C@@H](CCCNC(=N)N)C(=O)NCC(=O)N[C@@H](CCCNC(=N)N)C(=O)N[C@@H](CCCCNC(=O)COCCOCCNC(=O)COCCOCCNC(=O)CC[C@H](NC(=O)C1CCN(C(=O)CCCCCCCCCCCCCCCCCCC(=O)O)CC1)C(=O)O)C(=O)O)C(C)C [Example 60, N-epsilon37-(2-{2-[2-(2-{2-[2-((S)-4-Carboxy-4-{[1-(19-carboxynonadecanoyl)piperidine-4-carbonyl]amino}butyrylamino)ethoxy]ethoxy}acetylamino)ethoxy]ethoxy}acetyl) [DesaminoHis7,Arg26,Arg34,Lys37]GLP-1-(7-37)]",6.10 to 6.52
3,"CC[C@H](C)[C@H](NC(=O)[C@H](Cc1ccccc1)NC(=O)[C@H](CCC(=O)O)NC(=O)[C@H](CCCCNC(=O)COCCOCCNC(=O)CC[C@H](NC(=O)CC[C@H](NC(=O)CCCCCNC(=O)CCCS(=O)(=O)NC(=O)CCCCCCCCCCCCCCCc1nnn[nH]1)C(=O)O)C(=O)O)NC(=O)[C@H](C)NC(=O)[C@H](C)NC(=O)[C@H](CCC(N)=O)NC(=O)CNC(=O)[C@H](CCC(=O)O)NC(=O)[C@H](CC(C)C)NC(=O)[C@H](Cc1ccc(O)cc1)NC(=O)[C@H](CO)NC(=O)[C@H](CO)NC(=O)[C@@H](NC(=O)[C@H](CC(=O)O)NC(=O)[C@H](CO)NC(=O)[C@@H](NC(=O)[C@H](Cc1ccccc1)NC(=O)[C@@H](NC(=O)CNC(=O)[C@H](CCC(=O)O)NC(=O)C(C)(C)NC(=O)[C@@H](N)Cc1c[nH]cn1)[C@@H](C)O)[C@@H](C)O)C(C)C)C(=O)N[C@@H](C)C(=O)N[C@@H](Cc1c[nH]c2ccccc12)C(=O)N[C@@H](CC(C)C)C(=O)N[C@H](C(=O)N[C@@H](CCCNC(=N)N)C(=O)NCC(=O)N[C@@H](CCCNC(=N)N)C(N)=O)C(C)C [Example 41, N-epsilon26-[2-(2-{2-[(S)-4-Carboxy-4-((S)-4-carboxy-4-{6-[4-(16-(1H-tetrazol-5-yl)hexadecanoylsulfamoyl)butyrylamino]hexanoylamino}butyrylamino)butyrylamino]ethoxy}ethoxy)acetyl][Aib8,Arg34]GLP-1-(7-36)amide]",6.52 to 6.82

# Same assay, conditions: human, biotinylated human serum albumin on streptavidin-SPA beads, pH 7.4
row,SMILES,EC50 at 20 h
1,"CC[C@H](C)[C@H](NC(=O)[C@H](Cc1cccc(C(F)(F)F)c1)NC(=O)[C@H](CCC(=O)O)NC(=O)[C@H](CCCNC(=N)N)NC(=O)[C@H](C)NC(=O)[C@H](C)NC(=O)[C@H](CCC(N)=O)NC(=O)[C@H](CCC(=O)O)NC(=O)[C@H](CCC(=O)O)NC(=O)[C@H](CC(C)C)NC(=O)[C@H](Cc1ccc(O)cc1)NC(=O)[C@H](CO)NC(=O)[C@H](CO)NC(=O)[C@@H](NC(=O)[C@H](CC(=O)O)NC(=O)[C@H](CO)NC(=O)[C@@H](NC(=O)[C@H](Cc1ccccc1)NC(=O)[C@@H](NC(=O)CNC(=O)[C@H](CCC(=O)O)NC(=O)[C@H](C)NC(=O)CCc1c[nH]cn1)[C@@H](C)O)[C@@H](C)O)C(C)C)C(=O)N[C@@H](C)C(=O)N[C@@H](Cc1c[nH]c2ccccc12)C(=O)N[C@@H](CC(C)C)C(=O)N[C@H](C(=O)N[C@@H](CCCNC(=N)N)C(=O)NCC(=O)N[C@@H](CCCNC(=N)N)C(=O)N[C@@H](CCCCNC(=O)COCCOCCNC(=O)COCCOCCNC(=O)C[C@@H](NC(=O)C1CCN(C(=O)CCCCCCCCCCCCCCCCC(=O)O)CC1)C(=O)O)C(N)=O)C(C)C [Example 6, N-epsilon37-[2-(2-[2-(2-[2-(2-((R)-3-[1-(17-Carboxyheptadecanoyl)piperidin-4-ylcarbonylamino]3-carboxypropionylamino)ethoxy)ethoxy]acetylamino)ethoxy]ethoxy)acetyl][DesaminoHis7, Glu22 Arg26, Arg 34, Phe(m-CF3)28]GLP-1-(7-37)amide]",800 to 2000 nM
2,"CC[C@H](C)[C@H](NC(=O)[C@H](Cc1ccccc1)NC(=O)[C@H](CCC(=O)O)NC(=O)[C@H](CCCCNC(=O)COCCOCCNC(=O)CC[C@H](NC(=O)CC[C@H](NC(=O)CCCNC(=O)CCCS(=O)(=O)NC(=O)CCCCCCCCCCCCCCCc1nnn[nH]1)C(=O)O)C(=O)O)NC(=O)[C@H](C)NC(=O)[C@H](C)NC(=O)[C@H](CCC(N)=O)NC(=O)CNC(=O)[C@H](CCC(=O)O)NC(=O)[C@H](CC(C)C)NC(=O)[C@H](Cc1ccc(O)cc1)NC(=O)[C@H](CO)NC(=O)[C@H](CO)NC(=O)[C@@H](NC(=O)[C@H](CC(=O)O)NC(=O)[C@H](CO)NC(=O)[C@@H](NC(=O)[C@H](Cc1ccccc1)NC(=O)[C@@H](NC(=O)CNC(=O)[C@H](CCC(=O)O)NC(=O)C(C)(C)NC(=O)[C@@H](N)Cc1c[nH]cn1)[C@@H](C)O)[C@@H](C)O)C(C)C)C(=O)N[C@@H](C)C(=O)N[C@@H](Cc1c[nH]c2ccccc12)C(=O)N[C@@H](CC(C)C)C(=O)N[C@H](C(=O)N[C@@H](CCCNC(=N)N)C(=O)O)C(C)C [Example 36, N-epsilon26-[2-(2-{2-[(S)-4-Carboxy-4-((S)-4-carboxy-4-{4-[4-(16-(1H-tetrazol-5-yl)hexadecanoylsulfamoyl)butyrylamino]butyrylamino}butyrylamino)butyrylamino]ethoxy}ethoxy)acetyl][Aib8,Arg34]GLP-1-(7-34)]",100 to 150 nM
